We go through nine molecules from patent publication US20130324522A1, “INSECT ODORANT RECEPTOR ANTAGONISTS” (THE ROCKEFELLER UNIVERSITY, priority 2010, published 2013).

Format in all cases: cell-based
One assay has as its target OR8/OR7 (Anopheles gambiae, UniProt Q7PUT5+Q7QCC7). The experiment in a line: Ca2+-imaging of stable HEK293T cell line OR8/OR7. Particulars: for inhibition at 4 µM: HEK-293T, read-out: Percent Inhibition OR8 OR7. The method, then: (§1) Full-length cDNAs for mosquito (Anopheles gambiae) odorant receptor (OR1, OR2, OR7, OR8, OR28), and fly (Drosophila melanogaster) odorant receptor (Or47a, Or83b), mouse TRP channel (TRPM8), and mouse serotonin receptor (5HT3) were obtained and subcloned into mammalian expression vectors. The following mammalian expression vectors were used:
(§2) Stable cell lines OR1/OR7, OR2/OR7, OR8/OR7, OR10/OR7, OR28/OR7 and TRPM8 were generated from HEK293T cells. HEK293T-based cell lines were cultured in DMEM supplemented with these additional antibiotics: 6 μg/mL blasticidin and 1 μg/mL puromycin, with the exception of the TRPM8 cell lines, which was cultured in DMEM supplemented with 1 μg/mL puromycin.
(§3) Cells were trypsinized and split into 35 mm dishes one day before transfection. Confluent cells (60-70%) in 35 mm dishes were transfected with 1 μg of insect OR(X) plasmids in pME18s-bla and 1 μg of OR7-pME18s-puro using lipofectamine 2000. For Anopheles odorant receptors, two plasmids were co-transfected into HEK cells: the ligand-specific receptor (OR1, OR2, OR8, OR28) and the corresponding olfactory co-receptor: OR7. Cell lines containing TRPM8 were transfected with single plasmid.
(§4) Stable cell lines were cultured in 10 cm dishes, and confluent cells (70-80%) were trypsinized. 10,000 cells/20 μL were transferred into each well of 384-well plates coated with poly-D-lysine, and cultured for 2 days. For Flip-In T-Rex cells (cell lines expressing Or47a/Or83b and 5HT3), 5 μL of tetracycline (5 μg/mL) were added 1 day before the assay. 20 μL of Ca-4 dye was loaded into each well for 1.5 hr at room temperature in the dark, and the dye-loaded plates were subjected to Ca^2+-imaging using a Hamamatsu FDSS6000 real time fluorescence plate reader. Odorant solutions (9× final concentration) were prepared by dissolving 1M stock solutions into Hank's Buffered Salt Solution (HBSS), and 30 μL of odor solution was transferred to each well in 384-well plates.
(§5) Compounds ([…] in DMSO) were stored in 384-well plates, and last two columns (32 wells total) contained only DMSO. 200 nL of small compounds were transferred into the odorant plates before the assay using the Perkin-Elmer Janus workstation. The odorant plates were spun down to remove air bubbles, and placed on the FDSS6000 plate loader, and 5 μL of odorant solution was applied to the cell plate on the FDSS6000. Ca^2+ increase was monitored with fluorescence at 525 nm by excitation at 485 nm.

The target of the next assay is OR28/OR7 (Anopheles gambiae, UniProt A0A1S4GFY3+Q7QCC7). The experiment in a line: Ca2+-imaging of stable HEK293T cell line OR28/OR7. Particulars: for inhibition at 4 µM: HEK-293T, read-out: Percent Inhibition OR28 OR7. Here is the method:
as §1, §2, §3, §4, §5

A further assay addresses T1, Or47a/Or83b (Drosophila melanogaster, UniProt P81921+Q9VNB5).
T1 construct: Full-length cDNAs for mosquito (Anopheles gambiae) odorant receptor (OR1, OR2, OR7, OR8, OR28), and fly (Drosophila melanogaster) odorant receptor (Or47a, Or83b); expressed in transfected cells
T1 sequence (P81921 1-385): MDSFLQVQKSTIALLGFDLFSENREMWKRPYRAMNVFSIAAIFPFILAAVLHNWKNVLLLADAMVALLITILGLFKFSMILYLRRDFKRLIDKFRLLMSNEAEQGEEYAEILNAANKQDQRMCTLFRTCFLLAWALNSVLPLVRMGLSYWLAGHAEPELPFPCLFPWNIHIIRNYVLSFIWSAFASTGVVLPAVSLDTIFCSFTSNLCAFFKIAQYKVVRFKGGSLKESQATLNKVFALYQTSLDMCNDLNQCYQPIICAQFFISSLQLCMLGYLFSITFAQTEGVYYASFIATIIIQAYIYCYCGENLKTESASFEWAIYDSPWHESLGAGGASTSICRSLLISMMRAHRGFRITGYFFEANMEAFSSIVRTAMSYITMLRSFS
T1 sequence (Q9VNB5 1-486): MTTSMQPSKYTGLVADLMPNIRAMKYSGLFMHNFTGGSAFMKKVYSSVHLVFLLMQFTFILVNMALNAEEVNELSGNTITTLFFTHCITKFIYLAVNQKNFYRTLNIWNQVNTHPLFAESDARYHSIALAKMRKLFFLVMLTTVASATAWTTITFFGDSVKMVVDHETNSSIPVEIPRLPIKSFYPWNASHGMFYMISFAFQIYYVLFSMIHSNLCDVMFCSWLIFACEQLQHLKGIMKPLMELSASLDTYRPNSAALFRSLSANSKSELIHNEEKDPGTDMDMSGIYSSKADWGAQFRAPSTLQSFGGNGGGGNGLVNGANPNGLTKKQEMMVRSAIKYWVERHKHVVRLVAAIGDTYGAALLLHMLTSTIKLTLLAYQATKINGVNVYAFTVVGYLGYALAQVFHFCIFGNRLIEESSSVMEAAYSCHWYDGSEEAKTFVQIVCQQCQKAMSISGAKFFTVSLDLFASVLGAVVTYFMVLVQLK
The experiment in a line: Ca2+-imaging of stable Flip-In T-Rex cell line Or47a/Or83b. Particulars: for inhibition at 4 µM: read-out: Percent Inhibition OR47a OR83b. The method, then: as §1
Stable cell lines Or47a/Or83b and 5HT3 were generated from Flip-In T-Rex cells. Flip-In T-Rex-based cell lines were cultured in DMEM supplemented with these additional antibiotics: 6 μg/mL blasticidin and 100 μg/mL hygromycin.
Cells were trypsinized and split into 35 mm dishes 1 day before transfection. Confluent cells (60-70%) in 35 mm dishes were co-transfected with 1 μg of Or47a/Or83b plasmid in pcDNA5/FRT/TO/IRES plus the pOG44 plasmid or 1 μg of 5HT3 plasmid in pcDNA5/FRT/TO plus the pOG44 plasmid using lipofectamine 2000. Co-transfection of pOG44 and pcDNA5/FRT/TO/IRES or pcDNA5/FRT/TO allows expression of Flp recombinase and integration of the pcDNA5 plasmid into the genome via the FRT site. After one day of incubation, the transfected cells were transferred into 10 cm dishes with DMEM containing antibiotics: 20 μg/mL of hygromycin and 6 μg/mL of blasticidin. The concentration of Hygromycin was increased to 100 μg/mL when the population of cells became 30-40% confluent. The cells were cultured by changing medium every two days until cell clumps appeared. The clumps were picked and transferred into 96 well plates with DMEM containing 100 μg/mL of Hygromycin and 6 μg/mL of blasticidin. The cells were grown and transferred to 24 well plates, and ligand-evoked calcium increases were tested using the Hamamatsu FDSS6000 real time fluorescence plate reader.
as §4, §5

The target of the next assay is T2, TRP channel (TRPM8) (Mus musculus, UniProt Q8R4D5).
T2 construct: Full-length cDNAs for mosquito (Anopheles gambiae) odorant receptor (OR1, OR2, OR7, OR8, OR28), and fly (Drosophila melanogaster) odorant receptor (Or47a, Or83b), mouse TRP channel (TRPM8); expressed in transfected cells
T2 sequence (Q8R4D5 whole entry): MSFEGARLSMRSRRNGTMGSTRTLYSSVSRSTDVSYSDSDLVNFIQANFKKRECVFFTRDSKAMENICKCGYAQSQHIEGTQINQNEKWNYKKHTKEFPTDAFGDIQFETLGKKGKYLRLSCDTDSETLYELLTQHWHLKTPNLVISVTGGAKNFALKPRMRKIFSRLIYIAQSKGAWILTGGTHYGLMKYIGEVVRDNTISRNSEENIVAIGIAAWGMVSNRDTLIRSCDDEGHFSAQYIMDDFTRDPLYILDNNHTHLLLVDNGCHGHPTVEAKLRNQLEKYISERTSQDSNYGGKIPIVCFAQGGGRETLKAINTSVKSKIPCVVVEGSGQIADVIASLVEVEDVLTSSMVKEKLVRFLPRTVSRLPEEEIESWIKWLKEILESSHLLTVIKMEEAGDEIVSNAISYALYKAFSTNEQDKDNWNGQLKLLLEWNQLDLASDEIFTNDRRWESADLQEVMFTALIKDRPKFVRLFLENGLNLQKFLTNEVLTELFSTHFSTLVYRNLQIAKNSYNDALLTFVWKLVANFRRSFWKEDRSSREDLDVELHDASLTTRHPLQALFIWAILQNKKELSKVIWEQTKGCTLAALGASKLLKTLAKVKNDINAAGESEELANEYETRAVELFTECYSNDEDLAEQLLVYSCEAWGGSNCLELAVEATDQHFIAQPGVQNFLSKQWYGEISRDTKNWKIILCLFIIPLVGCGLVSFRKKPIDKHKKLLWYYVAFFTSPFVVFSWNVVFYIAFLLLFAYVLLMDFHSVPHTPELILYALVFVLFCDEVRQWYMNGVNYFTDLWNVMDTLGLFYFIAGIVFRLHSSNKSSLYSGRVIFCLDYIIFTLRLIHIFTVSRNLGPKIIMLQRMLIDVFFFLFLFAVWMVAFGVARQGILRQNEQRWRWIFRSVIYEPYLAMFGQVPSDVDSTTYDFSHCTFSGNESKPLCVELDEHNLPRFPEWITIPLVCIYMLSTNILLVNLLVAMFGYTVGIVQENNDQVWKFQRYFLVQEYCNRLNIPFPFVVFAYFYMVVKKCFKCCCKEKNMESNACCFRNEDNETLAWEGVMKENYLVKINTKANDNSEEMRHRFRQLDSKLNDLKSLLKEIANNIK
The experiment in a line: Ca2+-imaging of stable HEK293T cell line TRPM8. Particulars: for inhibition at 4 µM: HEK-293T, read-out: Percent Inhibition TRPM8. Here is the method:
as §1, §2, §3, §4, §5

[1] abbreviates: ligand pentyl acetate 30 μM, read-out: IC50 OR47a OR83b.
Where [2] appears, read: ligand menthol 300 μM, read-out: IC50 TRPM8.

The structures appear in SMILES notation. Read-outs that look alike come from different tables or passages of the source.

Sequence of OR8/OR7 (Q7QCC7 whole entry): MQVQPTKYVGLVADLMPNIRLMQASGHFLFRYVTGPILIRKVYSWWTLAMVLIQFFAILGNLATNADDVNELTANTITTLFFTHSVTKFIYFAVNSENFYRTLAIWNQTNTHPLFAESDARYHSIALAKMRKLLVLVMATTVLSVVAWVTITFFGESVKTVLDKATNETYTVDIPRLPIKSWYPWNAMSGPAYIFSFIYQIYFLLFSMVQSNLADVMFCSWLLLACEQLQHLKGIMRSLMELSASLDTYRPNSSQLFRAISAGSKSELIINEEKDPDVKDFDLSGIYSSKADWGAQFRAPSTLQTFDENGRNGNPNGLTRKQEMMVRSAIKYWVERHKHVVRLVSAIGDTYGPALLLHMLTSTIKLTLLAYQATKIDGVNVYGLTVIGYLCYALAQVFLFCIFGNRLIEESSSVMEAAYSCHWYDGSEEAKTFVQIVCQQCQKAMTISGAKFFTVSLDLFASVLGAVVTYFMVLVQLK
Sequence of OR8/OR7 (Q7PUT5 entry or part of it): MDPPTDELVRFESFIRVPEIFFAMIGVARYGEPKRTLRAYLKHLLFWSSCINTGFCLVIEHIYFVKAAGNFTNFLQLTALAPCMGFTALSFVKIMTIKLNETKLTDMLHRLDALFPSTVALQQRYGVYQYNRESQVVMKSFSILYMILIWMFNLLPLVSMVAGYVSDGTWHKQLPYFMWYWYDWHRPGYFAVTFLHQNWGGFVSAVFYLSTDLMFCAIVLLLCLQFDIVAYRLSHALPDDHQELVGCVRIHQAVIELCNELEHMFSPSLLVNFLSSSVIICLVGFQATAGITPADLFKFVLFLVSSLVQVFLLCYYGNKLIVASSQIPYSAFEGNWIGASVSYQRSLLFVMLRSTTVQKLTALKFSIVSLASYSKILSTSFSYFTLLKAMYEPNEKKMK
Sequence of OR28/OR7 (A0A1S4GFY3 entry or part of it): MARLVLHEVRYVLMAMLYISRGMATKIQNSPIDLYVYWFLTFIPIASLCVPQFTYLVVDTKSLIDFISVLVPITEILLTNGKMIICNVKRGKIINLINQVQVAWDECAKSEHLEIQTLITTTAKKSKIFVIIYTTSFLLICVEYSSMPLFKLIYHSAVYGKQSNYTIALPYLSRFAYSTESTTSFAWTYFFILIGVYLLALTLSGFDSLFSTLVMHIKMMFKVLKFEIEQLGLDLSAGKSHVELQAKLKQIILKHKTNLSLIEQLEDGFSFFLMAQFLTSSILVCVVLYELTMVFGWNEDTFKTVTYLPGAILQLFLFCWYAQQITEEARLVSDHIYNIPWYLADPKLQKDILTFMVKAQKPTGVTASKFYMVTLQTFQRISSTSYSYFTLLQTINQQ
Sequence of OR28/OR7 (Q7QCC7 whole entry): as the sequence (Q7QCC7 whole entry) above

As a reminder, the IC50 is the concentration that gives 50% inhibition. Consider `Cc1nc(NC(C)C)nc(NC(C)C)n1` [RU-T6], for which the IC50 is less than 2 µM against OR8/OR7, 20 to 50 µM at OR28/OR7, greater than 20 µM against Or47a/Or83b and greater than 20 µM against TRP channel (TRPM8).
What is called inhibition is the drop in the measured response relative to a control, in per cent. For the molecule `COc1ccccc1CC(=O)N1CCOC(COc2ccc(C)cc2)C1` (centres unmarked) [RU-0050390], the inhibition at 4 µM is less than 25% on OR8/OR7 (compound applied at 4 μM), greater than 75% on OR28/OR7 (compound applied at 4 μM), 26 to 50% on Or47a/Or83b (compound applied at 4 μM) and less than 25% on TRP channel (TRPM8) (compound applied at 4 μM). Moreover, the concentration for half-maximal inhibition (IC50) on OR28/OR7 (Table B, read-out: IC50 OR28) was less than 0.1 µM.
Regarding `CSc1nc(NC(C)C)nc(NC(C)C)n1` [RU-T2], the half-inhibitory concentration (IC50) against OR8/OR7 was less than 2 µM; on OR28/OR7, 2 to 20 µM; on Or47a/Or83b (setting [1]), greater than 20 µM; at TRP channel (TRPM8) (setting [2]), greater than 20 µM.
Regarding `CCOC(=O)CCC(=O)N(CCc1ccccc1)CC(=O)Nc1cc(C(C)(C)C)nn1-c1ccccc1C` [RU-0072462], the inhibition at 4 µM on OR8/OR7 (compound applied at 4 μM) was less than 25%; on OR28/OR7 (compound applied at 4 μM), greater than 75%; on Or47a/Or83b (compound applied at 4 μM), 26 to 50%; at TRP channel (TRPM8) (compound applied at 4 μM), less than 25%. In addition, the IC50 on OR28/OR7 (Table B, read-out: IC50 OR28) is less than 0.1 µM.
For the molecule `CN(Cc1nccn1Cc1c(F)cccc1Cl)C(=O)C1CCCC1` [RU-I5], the concentration for half-maximal inhibition (IC50) on OR8/OR7 (ligand 1-octen-3-ol 30 μM, read-out: IC50 OR8 OR7) was 2 to 20 µM; on OR28/OR7 (ligand acetophenone 300 μM, read-out: IC50 OR28 OR7), 2 to 20 µM; at Or47a/Or83b (setting [1]), 20 to 50 µM; on TRP channel (TRPM8) (setting [2]), greater than 20 µM.
As for `CCN(CC)C(=O)Oc1ccc2c(ccn2Cc2ccccc2Cl)c1NC(=O)CCCCC(=O)OC` [RU-0075446], the inhibition at 4 µM on OR8/OR7 is less than 25%; on OR28/OR7 it was greater than 75%; at Or47a/Or83b, less than 25%; on TRP channel (TRPM8), less than 25%. Moreover, the half-maximal inhibitory concentration (IC50) at OR28/OR7 was less than 0.1 µM.
As to `CCc1c(C(=O)NCc2cccnc2)cnn1-c1ccccc1` [RU-0048504], the inhibition at 4 µM on OR8/OR7 (compound applied at 4 μM) was less than 25%; at OR28/OR7 (compound applied at 4 μM), greater than 75%; on Or47a/Or83b (compound applied at 4 μM) it was 26 to 50%; on TRP channel (TRPM8) (compound applied at 4 μM), less than 25%. Also, at OR28/OR7 (Table B, read-out: IC50 OR28), the half-maximal inhibitory concentration (IC50) was less than 0.1 µM.
For `CCNc1nc(NCC)nc(SC)n1` [RU-T4], the half-maximal inhibitory concentration (IC50) was 2 to 20 µM at OR8/OR7, greater than 20 µM at OR28/OR7, greater than 20 µM at Or47a/Or83b (setting [1]) and greater than 20 µM on TRP channel (TRPM8) (setting [2]).
Take `CCN(CC)C(=O)Oc1ccc2c(ccn2Cc2cccc(C)c2)c1NC(=O)CCCCC(=O)OC` [RU-0075445]: the inhibition at 4 µM on OR8/OR7 is less than 25%; on OR28/OR7, greater than 75%; at Or47a/Or83b it was less than 25%; on TRP channel (TRPM8) it was less than 25%. At OR28/OR7, this molecule gave a 50% inhibitory concentration (IC50) of less than 0.1 µM.
